Our source for the inhibition values is patent publication US12162820B2 (TAIWANJ PHARMACEUTICALS CO., LTD., priority 2019, dated 2024).

Format in all cases: biochemical
The target of test [1] is T1, ATX (autotaxin) (Homo sapiens, UniProt Q13822).
T1 construct: purchased Cayman 10803
Put plainly: Autotaxin Inhibition Screening Assay (choline release from LPC, LPC-CR). The conditions noted are these: for inhibition at 4 µM: 4 μM compound; for inhibition at 20 µM: 20 μM compound; for inhibition at 50 µM: 50 μM compound. An outline of the steps:
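20 ng ATX incubated with 100 μM 14:0 LPC in 50 mM Tris pH 8.0, 0.01% Triton X-100, 50 mM CaCl2, with choline oxidase/HRP/2 mM HVA coupling; compounds at 4, 20 and 50 μM. HVA fluorescence (ex/em 320/450 nm) read every 60 s for 90 min; inhibition % from slopes corrected for blank versus vehicle.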

For test [2], the target named is T2, HDAC2 (Homo sapiens, UniProt Q92769).
T2 construct: purchased Enzo Life Sciences
As to the kind of experiment: HDAC Inhibition Screening Assay (FLUOR DE LYS Fluorimetric Drug Discovery Kit), HDAC2. The conditions noted are these: for inhibition at 2 µM: 2 μM compound; for inhibition at 10 µM: 10 μM compound; for inhibition at 50 µM: 50 μM compound. The method, boiled down:
(§1)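 Recombinant HDAC1, HDAC2 or HDAC3 was incubated with an acetyl-lysine fluorogenic substrate, and a developer was then added to release the fluorophore. Compounds were tested at 2, 10 and 50 μM, with fluorescence read at 360 or 485 nm excitation and 460 or 530 nm emission. Activity was expressed as a percentage of basal control minus baseline.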

Test [3] concerns the target T3, HDAC3 (Homo sapiens, UniProt O15379).
T3 construct: purchased Enzo Life Sciences
Put plainly: HDAC Inhibition Screening Assay (FLUOR DE LYS Fluorimetric Drug Discovery Kit), HDAC3. The conditions noted are these: for inhibition at 2 µM: 2 μM compound; for inhibition at 10 µM: 10 μM compound; for inhibition at 50 µM: 50 μM compound. The method, boiled down: as §1

Test [4] addresses T4, HDAC1 (Homo sapiens, UniProt Q13547).
T4 construct: purchased Enzo Life Sciences
Put plainly: HDAC Inhibition Screening Assay (FLUOR DE LYS Fluorimetric Drug Discovery Kit), HDAC1. The settings on record: for inhibition at 2 µM: 2 μM compound; for inhibition at 10 µM: 10 μM compound; for inhibition at 50 µM: 50 μM compound. An outline of the steps: as §1

The term inhibition denotes how much of the control response was suppressed.

T2 sequence (Q92769 whole entry): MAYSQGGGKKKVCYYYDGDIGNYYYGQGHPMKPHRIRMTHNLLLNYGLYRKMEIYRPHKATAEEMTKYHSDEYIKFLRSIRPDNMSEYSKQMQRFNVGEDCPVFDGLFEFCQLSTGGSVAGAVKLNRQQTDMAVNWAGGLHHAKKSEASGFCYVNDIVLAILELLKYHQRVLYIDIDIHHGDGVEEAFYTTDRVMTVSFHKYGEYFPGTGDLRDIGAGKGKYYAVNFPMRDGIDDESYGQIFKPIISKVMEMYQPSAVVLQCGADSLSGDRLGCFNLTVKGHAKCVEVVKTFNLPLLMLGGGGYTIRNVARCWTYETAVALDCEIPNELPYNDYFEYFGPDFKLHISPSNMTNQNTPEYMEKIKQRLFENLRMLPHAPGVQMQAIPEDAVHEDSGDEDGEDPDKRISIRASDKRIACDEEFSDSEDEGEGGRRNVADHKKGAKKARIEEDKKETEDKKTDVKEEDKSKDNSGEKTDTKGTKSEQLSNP
T3 sequence (O15379 whole entry): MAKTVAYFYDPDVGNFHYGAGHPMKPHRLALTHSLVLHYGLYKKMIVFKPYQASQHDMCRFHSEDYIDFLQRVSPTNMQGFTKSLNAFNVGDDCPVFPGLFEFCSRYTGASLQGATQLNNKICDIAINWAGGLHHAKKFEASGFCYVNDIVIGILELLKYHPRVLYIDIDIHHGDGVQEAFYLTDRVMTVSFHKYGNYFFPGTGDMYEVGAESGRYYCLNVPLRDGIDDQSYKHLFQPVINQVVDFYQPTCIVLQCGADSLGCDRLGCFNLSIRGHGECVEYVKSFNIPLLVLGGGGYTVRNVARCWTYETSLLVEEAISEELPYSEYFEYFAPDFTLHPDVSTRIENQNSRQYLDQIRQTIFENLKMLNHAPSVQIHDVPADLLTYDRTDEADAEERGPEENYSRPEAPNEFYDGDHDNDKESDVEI
T3 sequence (O75376 395-489 partner limits assumed): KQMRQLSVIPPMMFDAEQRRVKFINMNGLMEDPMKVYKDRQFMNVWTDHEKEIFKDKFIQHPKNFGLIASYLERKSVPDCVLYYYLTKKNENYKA
T4 sequence (Q13547 whole entry): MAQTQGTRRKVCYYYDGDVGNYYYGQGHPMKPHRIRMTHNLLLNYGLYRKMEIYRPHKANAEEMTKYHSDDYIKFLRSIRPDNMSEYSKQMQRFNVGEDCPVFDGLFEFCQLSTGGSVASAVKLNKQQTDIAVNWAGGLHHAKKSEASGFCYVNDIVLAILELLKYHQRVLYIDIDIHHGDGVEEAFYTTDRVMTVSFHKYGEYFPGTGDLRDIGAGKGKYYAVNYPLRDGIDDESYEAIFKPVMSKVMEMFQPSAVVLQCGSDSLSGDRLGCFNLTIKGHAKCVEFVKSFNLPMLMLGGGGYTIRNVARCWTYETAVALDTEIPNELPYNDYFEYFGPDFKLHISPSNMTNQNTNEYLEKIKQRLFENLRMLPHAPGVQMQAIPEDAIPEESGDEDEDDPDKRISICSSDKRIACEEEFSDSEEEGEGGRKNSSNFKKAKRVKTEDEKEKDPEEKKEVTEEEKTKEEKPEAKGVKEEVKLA

Regarding `COc1ccc2c(c1)CCC2NC(=O)CCCCCCC(=O)NO` (stereo not drawn) [Compound 44], in test [1], the inhibition at 4 µM was under 50%, the inhibition at 20 µM is under 50% and the inhibition at 50 µM was under 50%. Further, in test [2], the inhibition at 2 µM fell in the range of 50 to 80%, the inhibition at 10 µM is over 80% and the inhibition at 50 µM was over 80%. In test [3], the inhibition at 2 µM fell in the range of 50 to 80%, the inhibition at 10 µM is over 80% and the inhibition at 50 µM is over 80%. For the same molecule, in test [4], the inhibition at 2 µM is 50 to 80%, the inhibition at 10 µM was over 80% and the inhibition at 50 µM is over 80%.
As to `Cc1ccc(S(=O)(=O)NC2CCc3cc(/C=C/C(=O)NO)ccc32)cc1` (stereo not drawn) [Compound 16, (E)-N-hydroxy-3-(1-((4-methylphenyl)sulfonamido)-2,3-dihydro-1H-inden-5-yl)acrylamide], in test [1], the inhibition at 4 µM is under 50%, the inhibition at 20 µM is under 50% and the inhibition at 50 µM was under 50%. Further, in test [2], the inhibition at 2 µM is over 80%, the inhibition at 10 µM is over 80% and the inhibition at 50 µM is over 80%. For the same molecule, in test [3], the inhibition at 2 µM is over 80%, the inhibition at 10 µM was over 80% and the inhibition at 50 µM was over 80%. In test [4], the inhibition at 2 µM is over 80%, the inhibition at 10 µM is over 80% and the inhibition at 50 µM was over 80%.
On to `O=C(/C=C/c1ccc2c(c1)CCC2NC(=O)c1cc(C(F)(F)F)cc(C(F)(F)F)c1)NO` (stereo not drawn) [Compound 22, (E)-N-(5-(3-(hydroxyamino)-3-oxoprop-1-en-1-yl)-2,3-dihydro-1H-inden-1-yl)-3,5-bis(trifluoromethyl)benzamide], for which, in test [1], the inhibition at 4 µM is under 50%, the inhibition at 20 µM was under 50% and the inhibition at 50 µM is under 50%. Also, in test [2], the inhibition at 2 µM lay within 50 to 80%, the inhibition at 10 µM is over 80% and the inhibition at 50 µM was over 80%. Besides, in test [3], the inhibition at 2 µM was 50 to 80%, the inhibition at 10 µM is over 80% and the inhibition at 50 µM was over 80%. Also, in test [4], the inhibition at 2 µM fell in the range of 50 to 80%, the inhibition at 10 µM is over 80% and the inhibition at 50 µM is over 80%.
In test [1], `COc1ccc(S(=O)(=O)NC2CCc3cc(/C=C/C(=O)Nc4ccc(F)cc4N)ccc32)cc1` (stereo not drawn) [Compound 19, (E)-N-(2-amino-4-fluorophenyl)-3-(1-((4-methoxyphenyl)sulfonamido)-2,3-dihydro-1H-inden-5-yl)acrylamide] showed an inhibition at 4 µM of under 50%, an inhibition at 20 µM of under 50% and an inhibition at 50 µM of under 50%. In test [2], the inhibition at 2 µM is under 50%, the inhibition at 10 µM was under 50% and the inhibition at 50 µM was under 50%. Further, in test [3], the inhibition at 2 µM is under 50%, the inhibition at 10 µM was under 50% and the inhibition at 50 µM is under 50%. Besides, in test [4], the inhibition at 2 µM was under 50%, the inhibition at 10 µM is under 50% and the inhibition at 50 µM was under 50%.
In test [1], `Cc1[nH]c2ccccc2c1CCNC1CCc2cc(/C=C/C(=O)Nc3ccc(F)cc3N)ccc21` (stereo not drawn) [Compound 59, (E)-N-(2-amino-4-fluorophenyl)-3-(1-((2-(2-methyl-1H-indol-3-yl)ethyl)amino)-2,3-dihydro-1H-inden-5-yl)acrylamide] yielded an inhibition at 4 µM of under 50%, an inhibition at 20 µM of under 50% and an inhibition at 50 µM of under 50%. In addition, in test [2], the inhibition at 2 µM was over 80%, the inhibition at 10 µM was over 80% and the inhibition at 50 µM is over 80%. Besides, in test [3], the inhibition at 2 µM is over 80%, the inhibition at 10 µM is over 80% and the inhibition at 50 µM is over 80%. In test [4], the inhibition at 2 µM lay in the range of 50 to 80%, the inhibition at 10 µM is over 80% and the inhibition at 50 µM was over 80%.
In test [1], `Nc1cc(F)ccc1NC(=O)/C=C/c1ccc2c(c1)CCCC2NC(=O)c1cc(C(F)(F)F)cc(C(F)(F)F)c1` (stereo not drawn) [Compound 23] came in with an inhibition at 4 µM of under 50%, an inhibition at 20 µM of under 50% and an inhibition at 50 µM of under 50%. For the same molecule, in test [2], the inhibition at 2 µM was under 50%, the inhibition at 10 µM is under 50% and the inhibition at 50 µM is under 50%. In test [3], the inhibition at 2 µM was under 50%, the inhibition at 10 µM is under 50% and the inhibition at 50 µM was under 50%. In addition, in test [4], the inhibition at 2 µM was under 50%, the inhibition at 10 µM is under 50% and the inhibition at 50 µM was under 50%.
In test [1], `O=C(NO)c1ccc(COc2ccc3c(c2)CC(Cc2cc(C(F)(F)F)cc(C(F)(F)F)c2)C3=O)cc1` (stereo not drawn) [Compound 77, 4-(((2-(3,5-bis(trifluoromethyl)benzyl)-1-oxo-2,3-dihydro-1H-inden-5-yl)oxy)methyl)-N-hydroxybenzamide] had an inhibition at 4 µM of over 80%, an inhibition at 20 µM of over 80% and an inhibition at 50 µM of over 80%. Moreover, in test [2], the inhibition at 2 µM was under 50%, the inhibition at 10 µM was in the range of 50 to 80% and the inhibition at 50 µM lay within 50 to 80%. In test [3], the inhibition at 2 µM is under 50%, the inhibition at 10 µM is under 50% and the inhibition at 50 µM lay in the range of 50 to 80%. Moreover, in test [4], the inhibition at 2 µM is under 50%, the inhibition at 10 µM was under 50% and the inhibition at 50 µM is 50 to 80%.
As to `O=C(/C=C/c1ccc2c(c1)CCC2N1CC(=O)N(c2cc(Cl)cc(Cl)c2)C1=O)NO` (stereo not drawn) [Compound 37, (E)-3-(1-(3-(3,5-dichlorophenyl)-2,4-dioxoimidazolidin-1-yl)-2,3-dihydro-1H-inden-5-yl)-N-hydroxyacrylamide], in test [1], the inhibition at 4 µM is under 50%, the inhibition at 20 µM is under 50% and the inhibition at 50 µM was under 50%. For the same molecule, in test [2], the inhibition at 2 µM is over 80%, the inhibition at 10 µM is over 80% and the inhibition at 50 µM is over 80%. For the same molecule, in test [3], the inhibition at 2 µM was over 80%, the inhibition at 10 µM is over 80% and the inhibition at 50 µM is over 80%. Moreover, in test [4], the inhibition at 2 µM was over 80%, the inhibition at 10 µM is over 80% and the inhibition at 50 µM was over 80%.
In the case of `CCN(CC)c1ccc(C(=O)NC2CCc3cc(/C=C/C(=O)NCCCCCC(=O)NO)ccc32)cc1` (stereo not drawn) [Compound 30, (E)-4-(diethylamino)-N-(5-(3-((6-(hydroxyamino)-6-oxohexyl)amino)-3-oxoprop-1-en-1-yl)-2,3-dihydro-1H-inden-1-yl)benzamide], in test [1], the inhibition at 4 µM is under 50%, the inhibition at 20 µM was under 50% and the inhibition at 50 µM was 50 to 80%. Further, in test [2], the inhibition at 2 µM is over 80%, the inhibition at 10 µM is over 80% and the inhibition at 50 µM was over 80%. Also, in test [3], the inhibition at 2 µM was over 80%, the inhibition at 10 µM was over 80% and the inhibition at 50 µM is over 80%. In addition, in test [4], the inhibition at 2 µM was over 80%, the inhibition at 10 µM is over 80% and the inhibition at 50 µM is over 80%.
As for `O=C(CCCCCCC(=O)Nc1ccc2c(c1)CC/C(=C\c1cc(C(F)(F)F)cc(C(F)(F)F)c1)C2=O)NO` [Compound 4], in test [1], the inhibition at 4 µM was over 80%, the inhibition at 20 µM is over 80% and the inhibition at 50 µM was over 80%. In addition, in test [2], the inhibition at 2 µM is 50 to 80%, the inhibition at 10 µM is over 80% and the inhibition at 50 µM was over 80%. Besides, in test [3], the inhibition at 2 µM was under 50%, the inhibition at 10 µM was in the range of 50 to 80% and the inhibition at 50 µM was over 80%. In test [4], the inhibition at 2 µM fell in the range of 50 to 80%, the inhibition at 10 µM was over 80% and the inhibition at 50 µM was over 80%.
In the case of `O=C(CCCCCNC(=O)COc1ccc2c(c1)CC/C(=C\c1cc(C(F)(F)F)cc(C(F)(F)F)c1)C2=O)NO` [Compound 74, (E)-6-(2-((6-(3,5-bis(trifluoromethyl)benzylidene)-5-oxo-5,6,7,8-tetra-hydronaphthalen-2-yl)oxy)acetamido)-N-hydroxyhexanamide], in test [1], the inhibition at 4 µM is over 80%, the inhibition at 20 µM is over 80% and the inhibition at 50 µM was over 80%. In addition, in test [2], the inhibition at 2 µM is 50 to 80%, the inhibition at 10 µM is over 80% and the inhibition at 50 µM was over 80%. Also, in test [3], the inhibition at 2 µM was under 50%, the inhibition at 10 µM is over 80% and the inhibition at 50 µM is over 80%. Moreover, in test [4], the inhibition at 2 µM was under 50%, the inhibition at 10 µM is over 80% and the inhibition at 50 µM is over 80%.
In test [1], `Nc1cc(F)ccc1NC(=O)/C=C/c1ccc2c(c1)CCCC2OCc1cc(C(F)(F)F)cc(C(F)(F)F)c1` (stereo not drawn) [Compound 35, (E)-N-(2-amino-4-fluorophenyl)-3-(5-((3,5-bis(trifluoromethyl)benzyl)oxy)-5,6,7,8-tetrahydronaphthalen-2-yl)acrylamide] showed an inhibition at 4 µM of under 50%, an inhibition at 20 µM of under 50% and an inhibition at 50 µM of under 50%. In test [2], the inhibition at 2 µM is under 50%, the inhibition at 10 µM was under 50% and the inhibition at 50 µM was under 50%. Further, in test [3], the inhibition at 2 µM was under 50%, the inhibition at 10 µM is under 50% and the inhibition at 50 µM is 50 to 80%. Also, in test [4], the inhibition at 2 µM was under 50%, the inhibition at 10 µM was under 50% and the inhibition at 50 µM is under 50%.
